Patent publication US5811454A (priority 1993, dated 1998)
“Also recorded” adds a separate entry of the source. Read-outs that look alike come from different tables or passages of the source.

Assays:
CPG2 = CPG2 (Pseudomonas sp., UniProt P06621); format: biochemical, bacterial
[1] = system: colorectal cell line LS174T; test: cells; conditions: Homo sapiens, 1 h
[2] = system: colorectal cell line LS174T
[3] = ph stat, naoh titration

CPG2, sequence (P06621 23-415): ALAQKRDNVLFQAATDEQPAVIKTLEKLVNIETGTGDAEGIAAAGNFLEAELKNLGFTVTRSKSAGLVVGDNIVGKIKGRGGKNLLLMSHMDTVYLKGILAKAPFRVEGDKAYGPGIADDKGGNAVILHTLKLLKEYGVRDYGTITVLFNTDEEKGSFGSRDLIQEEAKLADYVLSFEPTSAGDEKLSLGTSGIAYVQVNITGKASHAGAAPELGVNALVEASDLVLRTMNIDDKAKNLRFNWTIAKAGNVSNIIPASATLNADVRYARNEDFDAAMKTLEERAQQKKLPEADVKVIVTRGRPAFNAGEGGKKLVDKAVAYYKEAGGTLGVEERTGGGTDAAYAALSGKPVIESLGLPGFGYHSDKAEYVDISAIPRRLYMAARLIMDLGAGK

Row | Structure (SMILES) | Ability of prodrug to act as CPG2 substrate (in words) (CPG2) | IC50 ([1]; read-out: Prodrug + CPG2 IC50) [µM] | IC50 ([1]; read-out: Prodrug IC50) [µM] | Active Drug t1/2 (chemical half-life) [3] [min] | IC50 ([1]; read-out: Active Drug IC50) [µM] | further results
1 | CS(=O)(=O)OCCN(CCOS(C)(=O)=O)c1ccc(C(=O)N[C@@H](CCC(=O)O)C(=O)O)c(F)c1 [Compound 7, 2-fluoro, 4-[bis-[2-(mesyloxy)ethyl]amino]benzoyl-L-glutamic acid] | such a poor substrate that it was not possible to measure its kinetics; also recorded: very poor substrate | > 800 | > 800 |  |  | 
2 | CS(=O)(=O)OCCN(CCCl)c1ccc(C(=O)N[C@@H](CCC(=O)O)C(=O)O)c(F)c1 [Compound 8, 2-fluoro, 4-[(2-chloroethyl)[2-(mesyloxy)ethyl]amino]benzoyl-L-glutamic acid] | good substrates | > 800 | > 800 |  |  | 
3 | O=C(O)CC[C@H](NC(=O)c1ccc(N(CCCl)CCCl)cc1F)C(=O)O [Compound 9, 2-fluoro, 4-[bis(2-chloroethyl)amino]benzoyl-L-glutamic acid] | good substrates |  |  |  |  | kcat (CPG2): 462 S^-1; IC50 ([2]; read-out: Prodrug + CPG2 IC50): > 800 µM; IC50 ([2]; read-out: Prodrug IC50): > 800 µM
4 | CS(=O)(=O)OCCN(CCCl)c1ccc(C(=O)O)c(F)c1 [Compound 11] |  |  |  | 192 | > 800 | 
5 | CS(=O)(=O)OCCN(CCOS(C)(=O)=O)c1ccc(C(=O)N[C@@H](CCC(=O)O)C(=O)O)cc1F [Compound 19] | good substrates | 480 | > 800 |  |  | 
6 | CS(=O)(=O)OCCN(CCCl)c1ccc(C(=O)N[C@@H](CCC(=O)O)C(=O)O)cc1F [Compound 20, 3-fluoro, 4-[(2-chloroethyl)[2-(mesyloxy)ethyl]amino]benzoyl-L-glutamic acid] | good substrates | 350 | > 800 |  |  | Prodrug t1/2 (chemical half-life) [3]: 122 min
7 | O=C(O)CC[C@H](NC(=O)c1ccc(N(CCCl)CCCl)c(F)c1)C(=O)O [Compound 21, 3-fluoro, 4-[bis(2-chloroethyl) ,amino] benzoyl-L-glutamic acid] | good substrates |  |  |  |  | kcat (CPG2): 1028 S^-1; IC50 ([2]; read-out: Prodrug + CPG2 IC50): 390 µM; IC50 ([2]; read-out: Prodrug IC50): > 800 µM
8 | CS(=O)(=O)OCCN(CCOS(C)(=O)=O)c1ccc(C(=O)O)cc1F [Compound 22] |  |  |  | 1.9 | 480 | 
9 | CS(=O)(=O)OCCN(CCCl)c1ccc(C(=O)O)cc1F [Compound 23] |  |  |  | 2.4 | 280 | 
10 | CS(=O)(=O)OCCN(CCOS(C)(=O)=O)c1ccc(C(=O)N[C@@H](CCC(=O)O)C(=O)O)cc1 [Compound 25, reference compound] |  |  |  |  |  | Prodrug t1/2 (chemical half-life) [3]: 42 min
11 | CS(=O)(=O)OCCN(CCCl)c1ccc(C(=O)N[C@@H](CCC(=O)O)C(=O)O)cc1 [Compound 26, 4[(2chloroethyl)[2(mesyloxy)ethyl]amino]benzoylL-glutamic acid, reference compound] |  | 200 | > 800 |  |  | Prodrug t1/2 (chemical half-life) [3]: 984 min; Prodrug activity (increased cytotoxicity on conversion by CPG2) [2]: substantial prodrug activity
12 | CS(=O)(=O)OCCN(CCCl)c1ccc(C(=O)O)cc1 [Compound 29, reference compound] |  |  |  | 58 | 185 | 
